Measurements published in patent publication US4434788A, “Enhancer of anti-tumor effect” (Yamasa Shoyu Kabushiki Kaisha, priority 1980, dated 1984).
Like-named read-outs stand apart in the source and are kept apart here.

Experiments:
Acute toxicity test = conditions: mouse, in vivo, ip, ICR mice, male, one week; estimated
Protocol: A quantity of 3'-dGuo was administered intraperitoneally to ICR mice (male, 8-weeks old, 10 mice for each group) in a dose of 500 mg/kg or 1,000 mg/kg, and the mice were subjected to observation for a week.

EMT-6 tumors [1] = test: Enhancement of the effect of anti-tumor agents on EMT-6 tumor in mouse; type: in vivo, BALB/c-strain mice
Protocol: (1) EMT-6 tumor cells (1×10^6) were inoculated intradermally into the right thighs of BALB/c-strain mice (7 weeks old). On the 10th day after inoculation of the tumor cells and thereafter, various enhancer chemicals in physiological saline solutions were administered intrapenitoneally to the mouse every other day in the indicated doses for respective agents. The pharmaceutical agents of the present invention were administered 30 minutes after administration of the anti-tumor agents. After commencement of the treatment with pharmaceutical agents, the tumor sizes were measured every other day and compared with the control group.

[2] = system: potentially lethal damage repair; test: PLDR-inhibiting / radiosensitizing activity (general statements)
EMT-6 tumors [3] = test: Radiosensitizing effect on EMT-6 tumor in mouse, 1500 rad, tumor size and cure; type: in vivo, BALB/c-strain female mice
EMT-6 tumors [4] = test: Radiosensitizing effect on EMT-6 tumor in mouse, cure percentage and TCD50; type: in vivo, BALB/c-strain female mice; conditions: 100 mg/kg i.p. after irradiation; for Cure number/Number treated / Cure percentage: >90 days
Protocol: EMT-6 tumor cells (2×10^5) were inoculated intradermally into the right thighs of BALB/c-strain female mice (8 weeks old). When the tumor sizes reached 5.5 to 8.0 mm after inoculation of the tumor cells, irradiation was locally carried out with 1,000 rad to 2,700 rad of 32 MeV electron beam under no anesthesia, and thereafter 3'-dAdo and 3'-dGuo, each dissolved in physiological saline solution, were administered intraperitoneally in a dose of 100 mg/kg. After the treatments, observation was continued for longer than 90 days, and the cure percentages were determined for comparison with the control group. [formula]
(2) TCD50 =50% Tumor control dose

[5] = system: Chinese hamster-HA-1 cells; test: Plating efficiency of stationary-phase HA-1 cells given enhancer immediately after 1,000 R X-ray (inhibition of PLDR); type: cell-based; conditions: for Plating efficiency after 4 hours: control 2.1; for Plating efficiency after 7 hours: control 3.3
Protocol: (§1) (1) Cells under stationary phase, prepared by planting 2×10^5 cells/well of Chinese hamster-HA-1 cells in a multiwell dish and exchanging cultural medium every day starting on the third day and thereafter were irradiated with 1,000 R of X-rays. Immediately after radiation, 3'-dUrd, and 3'-dGuo in HANKs' balanced salt solution were administered. Then, after elapse of various times, the cells were taken off with trypsin, and a suitable number of cells were transferred into petri dishes for testing colony forming ability and plating efficiencies. The percentages of survival were calculated with corrections by the plating efficiencies with the pharmaceutical agents alone.

[6] = as above; type: cell-based, Chinese hamster; conditions: chinese hamster, ha-1 cells, no irradiation, control 51, read-out: Plating efficiency, treated only with enhancer (after 7 hours)
Protocol: as §1

[7] = Irradiation 1500 rad + 3'-dGuo 2.0 mg/mouse, irradiation alone 0%
[8] = Irradiation 1500 rad + 3'-dGuo 2.0 mg/mouse, irradiation alone 0/10

In the case of `Nc1nc2c(ncn2[C@@H]2O[C@H](CO)C[C@H]2O)c(=O)[nH]1` [3'-dGuo, 3'-deoxyguanosine], the LD50 at 168 h (Acute toxicity test) is reported as over 1000 mg/kg, the “Mean tumor diameter 18 days after commencement of treatment” value (“Mean tumor diameter 18 days” below) (EMT-6 tumors [1]; 3'-dGuo alone 50 mg/kg × 6, n = 10, before treatment 6.75 ± 1.20, control 11.43 ± 2.30) is reported as 10.92 ± 3.23 mm and the “Mean tumor diameter ratio 18 days after commencement of treatment” value (shortened to “Mean tumor diameter ratio 18 days”) (EMT-6 tumors [1]; 3'-dGuo alone 50 mg/kg × 6, n = 10, control 1.97 ± 0.40) is reported as 1.62 ± 0.48. For the same compound, the “Mean tumor diameter 7 days after commencement of treatment” value (shortened to “Mean tumor diameter 7 days”) (EMT-6 tumors [1]; 3'-dGuo alone 50 mg/kg × 8, n = 6, before treatment 6.08 ± 0.69, control 7.38 ± 0.69) was 7.45 ± 2.07 mm, the “Mean tumor diameter 14 days after commencement of treatment” value (shortened to “Mean tumor diameter 14 days”) (EMT-6 tumors [1]; 3'-dGuo alone 50 mg/kg × 8, n = 6, before treatment 6.08 ± 0.69, control 9.20 ± 1.78) was 9.10 ± 2.65 mm and the “Mean tumor diameter ratio 7 days after commencement of treatment” value (“Mean tumor diameter ratio 7 days” below) (EMT-6 tumors [1]; 3'-dGuo alone 50 mg/kg × 8, n = 6, control 1.27 ± 0.17) was 1.21 ± 0.24. The “Mean tumor diameter ratio 14 days after commencement of treatment” value (shortened to “Mean tumor diameter ratio 14 days”) (EMT-6 tumors [1]; 3'-dGuo alone 50 mg/kg × 8, n = 6, control 1.57 ± 0.40) was 1.48 ± 0.30, the “Mean tumor diameter 7 days” value (EMT-6 tumors [1]; ACNU 25 mg/kg × 5 combined with 3'-dGuo 50 mg/kg × 5, n = 7, before treatment 6.23 ± 1.04, control 7.38) was 5.14 ± 2.29 mm and the “Mean tumor diameter 14 days” value (EMT-6 tumors [1]; ACNU 25 mg/kg × 5 combined with 3'-dGuo 50 mg/kg × 5, n = 7, before treatment 6.23 ± 1.04, control 9.20) was 4.90 ± 1.94 mm. For the same compound, the “Mean tumor diameter ratio 7 days” value (EMT-6 tumors [1]; ACNU 25 mg/kg × 5 combined with 3'-dGuo 50 mg/kg × 5, n = 7, control 1.27) was 0.80 ± 0.22, the “Mean tumor diameter ratio 14 days” value (EMT-6 tumors [1]; ACNU 25 mg/kg × 5 combined with 3'-dGuo 50 mg/kg × 5, n = 7, control 1.57) was 0.76 ± 0.19 and the “Mean tumor diameter 7 days” value (EMT-6 tumors [1]; ADM 2 mg/kg × 8 combined with 3'-dGuo 50 mg/kg × 8, n = 10, before treatment 6.59 ± 1.14, control 7.38) was 6.16 ± 2.00 mm. The “Mean tumor diameter 14 days” value (EMT-6 tumors [1]; ADM 2 mg/kg × 8 combined with 3'-dGuo 50 mg/kg × 8, n = 10, before treatment 6.59 ± 1.14, control 9.20) was 6.30 ± 2.54 mm, the “Mean tumor diameter ratio 7 days” value (EMT-6 tumors [1]; ADM 2 mg/kg × 8 combined with 3'-dGuo 50 mg/kg × 8, n = 10, control 1.27) was 0.92 ± 0.18 and the “Mean tumor diameter ratio 14 days” value (EMT-6 tumors [1]; ADM 2 mg/kg × 8 combined with 3'-dGuo 50 mg/kg × 8, n = 10, control 1.57) was 0.94 ± 0.31. The “Mean tumor diameter 18 days” value (EMT-6 tumors [1]; BLM 25 mg/kg × 4 combined with 3'-dGuo 50 mg/kg × 4, n = 10, before treatment 6.65 ± 0.96, control 11.43) was 5.60 ± 1.67 mm, the “Mean tumor diameter ratio 18 days” value (EMT-6 tumors [1]; BLM 25 mg/kg × 4 combined with 3'-dGuo 50 mg/kg × 4, n = 10, control 1.97) was 0.84 ± 0.25 and the “Mean tumor diameter 18 days” value (EMT-6 tumors [1]; FT-207 100 mg/kg × 6 combined with 3'-dGuo 50 mg/kg × 6, n = 11, before treatment 6.39 ± 0.94, control 11.43) was 3.18 ± 2.38 mm. For the same compound, the “Mean tumor diameter ratio 18 days” value (EMT-6 tumors [1]; FT-207 100 mg/kg × 6 combined with 3'-dGuo 50 mg/kg × 6, n = 11, control 1.97) was 0.50 ± 0.37, the “Mean tumor diameter 7 days” value (EMT-6 tumors [1]; araC 50 mg/kg × 8 combined with 3'-dGuo 50 mg/kg × 8, n = 7, before treatment 6.04 ± 0.64, control 7.38) was 5.96 ± 1.77 mm and the “Mean tumor diameter 14 days” value (EMT-6 tumors [1]; araC 50 mg/kg × 8 combined with 3'-dGuo 50 mg/kg × 8, n = 7, before treatment 6.04 ± 0.64, control 9.20) was 5.34 ± 1.57 mm. The “Mean tumor diameter ratio 7 days” value (EMT-6 tumors [1]; araC 50 mg/kg × 8 combined with 3'-dGuo 50 mg/kg × 8, n = 7, control 1.27) was 0.97 ± 0.19, the “Mean tumor diameter ratio 14 days” value (EMT-6 tumors [1]; araC 50 mg/kg × 8 combined with 3'-dGuo 50 mg/kg × 8, n = 7, control 1.57) was 0.88 ± 0.21 and the Radiosensitizing activity [2] was “excellent radiosensitizing activities”. For the same compound, the “Mean tumor diameter 2 weeks after treatment” value (EMT-6 tumors [3]; 3'-dGuo 100 mg/kg i.p. after 1500 rad, n = 19, baseline 6.19 ± 0.16 mm, irradiation alone 7.41) was 6.82 ± 0.44 mm, the “Mean tumor diameter 3 weeks after treatment” value (EMT-6 tumors [3]; 3'-dGuo 100 mg/kg i.p. after 1500 rad, n = 19, baseline 6.19 ± 0.16 mm, irradiation alone 8.29) was 4.83 ± 0.80 mm and the “Diameter ratio 2 weeks after treatment” value (EMT-6 tumors [3]; 3'-dGuo 100 mg/kg i.p. after 1500 rad, n = 19, irradiation alone 1.09) was 1.09 ± 0.06. The “Diameter ratio 3 weeks after treatment” value (EMT-6 tumors [3]; 3'-dGuo 100 mg/kg i.p. after 1500 rad, n = 19, irradiation alone 1.17) was 0.72 ± 0.12, the “Volume ratio 2 weeks after treatment” value (EMT-6 tumors [3]; 3'-dGuo 100 mg/kg i.p. after 1500 rad, n = 19, irradiation alone 1.44) was 1.49 ± 0.19 and the “Volume ratio 3 weeks after treatment” value (EMT-6 tumors [3]; 3'-dGuo 100 mg/kg i.p. after 1500 rad, n = 19, irradiation alone 2.06) was 0.92 ± 0.21. For the same compound, the “Cure (number of mice)” value (EMT-6 tumors [3]; Irradiation 1500 rad + 3'-dGuo 2.0 mg/mouse, 28 days, irradiation alone 1/10) was 6/19, the “Cure (percent)” value (EMT-6 tumors [3]; Irradiation 1500 rad + 3'-dGuo 2.0 mg/mouse, 28 days, irradiation alone 10%) was 32% and the “0.5 to less than 1 of volume ratio excluding cure; Tumor regression rate: slow (percent)” value (EMT-6 tumors [3]; [7]) was 18%. The “Less than 0.5 of volume ratio excluding cure; Tumor regression rate: rapid (percent)” value (EMT-6 tumors [3]; [7]) was 11%, the “0.5 to less than 1 of volume ratio excluding cure; Tumor regression rate: slow (number)” value (EMT-6 tumors [3]; [8]) was 3/19 and the “Less than 0.5 of volume ratio excluding cure; Tumor regression rate: rapid (number)” value (EMT-6 tumors [3]; [8]) was 2/19. The “1.0 to less than 2.0 of volume ratio excluding cure; regrowth: slow (number)” value (EMT-6 tumors [3]; Irradiation 1500 rad + 3'-dGuo 2.0 mg/mouse, irradiation alone 3/10) was 6/19, the “2.0 or more of volume ratio excluding cure; regrowth: rapid (number)” value (EMT-6 tumors [3]; Irradiation 1500 rad + 3'-dGuo 2.0 mg/mouse, irradiation alone 6/10) was 2/19 and the “1.0 to less than 2.0 of volume ratio excluding cure; regrowth: slow (percent)” value (EMT-6 tumors [3]; Irradiation 1500 rad + 3'-dGuo 2.0 mg/mouse, irradiation alone 30%) was 32%. The “2.0 or more of volume ratio excluding cure; regrowth: rapid (percent)” value (EMT-6 tumors [3]; Irradiation 1500 rad + 3'-dGuo 2.0 mg/mouse, irradiation alone 60%) was 11%, the TCD50 (50% Tumor control dose) (EMT-6 tumors [4]; radiation doses given in rad, control 2400) was 1250 rad and the TCD50 ratio (EMT-6 tumors [4]; relative to control 1.0) was 0.52. For the same compound, the “Cure number/Number treated” value (EMT-6 tumors [4]; 1,000 rad, control 1/23) was 8/26, the Cure percentage (EMT-6 tumors [4]; 1,000 rad, control 4%) was 31% and the “Cure number/Number treated” value (EMT-6 tumors [4]; 1,500 rad, control 8/44) was 21/29. For the same compound, the Cure percentage (EMT-6 tumors [4]; 1,500 rad, control 18%) was 72%, the “Cure number/Number treated” value (EMT-6 tumors [4]; 2,100 rad, control 9/24) was 22/28 and the Cure percentage (EMT-6 tumors [4]; 2,100 rad, control 38%) was 79%. The “Cure number/Number treated” value (EMT-6 tumors [4]; 2,700 rad, control 13/28) was 22/25, the Cure percentage (EMT-6 tumors [4]; 2,700 rad, control 47%) was 88% and the “Plating efficiency after 4 hours” value ([5]; 3'-dGuo 10 μg/ml after 1,000 R) was 1.6%. The “Plating efficiency after 7 hours” value ([5]; 3'-dGuo 10 μg/ml after 1,000 R) was 2.6%, the “Plating efficiency after 1 hour” value ([5]; 3'-dGuo 10 μg/ml after 1,000 R, control (0 μg/ml) 1.4) was 1.3% and the “Plating efficiency after 1 hour” value ([5]; 3'-dGuo 20 μg/ml after 1,000 R, control 1.4) was 1.2%. For the same compound, the “Plating efficiency after 4 hours” value ([5]; 3'-dGuo 20 μg/ml after 1,000 R) was 1.3%, the “Plating efficiency after 7 hours” value ([5]; 3'-dGuo 20 μg/ml after 1,000 R) was 2.0% and the “Plating efficiency after 1 hour” value ([5]; 3'-dGuo 40 μg/ml after 1,000 R, control 1.4) was 0.96%. For the same compound, the “Plating efficiency after 4 hours” value ([5]; 3'-dGuo 40 μg/ml after 1,000 R) was 1.1%, the “Plating efficiency after 7 hours” value ([5]; 3'-dGuo 40 μg/ml after 1,000 R) was 1.6% and the “Inhibition of repair (PLDR) after irradiation with X-rays” value ([5]; HA-1 cells, Table 1) was “found to inhibit repair (PLDR) after irradiation with X-rays”. The “Toxicity as examined by plating efficiencies” value ([5]; HA-1 cells, Table 1) was “Substantially no toxicity was observed”, the viability at 7 h ([6]; 3'-dGuo 10 μg/ml) was 50% and the viability at 7 h ([6]; 3'-dGuo 20 μg/ml) was 47%. The viability at 7 h ([6]; 3'-dGuo 40 μg/ml) was 45%.
